Source: patent US8962657B2, “Aryl derivatives and uses thereof” (Jacobus Pharmaceutical Company, Inc., priority 2012, dated 2015)
pIC50: −log10 of the molar value. Where two headings read alike, the source gives them in different places. Marks after values point to notes of the source that are not given here.

Experiments:
[1] = tested on: P. falciparum strain D6 (sensitive to chloroquine and pyrimethamine); assay: [3H]-hypoxanthine growth inhibition assay, P. falciparum D6; assay type: cell-based; details: Plasmodium falciparum
Experimental: (§1) The potential for antimalarial activity against Plasmodium falciparum was determined by measuring the incorporation of tritiated hypoxanthine into parasitized red blood cells.
(§2) Stock solutions of the test compounds and the reference drug chloroquine (CQ) (Sigma Chemicals C-6628, Lot #059H0919) were prepared in silanized glass vials with AquaSil™ (Pierce, USA) to minimize absorption of the compounds to glassware. All test compounds were dissolved in DMSO (Sigma Cat No. # D8418) to 1 mM concentration, whereas CQ was dissolved in 50% methanol at a concentration of 1.6 mg/ml (base). Stock solutions were stored at −20° C.
(§3) The P. falciparum laboratory adapted strains utilized in this project (Table 1) were in vitro cultured and routinely maintained in RPMI-1640-LPLF complete medium, which contained low concentrations of para-amino benzoic acid (0.0005 mg/L) and folic acid (0.01 mg/L).
(§4) The low concentration of folic acid in RPMI-1640-LPLF prevents inhibition of the compound if its activity targets the parasite's folate metabolic pathway. Parasites were cultured in human red blood cells (RBCs) in vitro at 37° C. in special gas mixture (5% O2, 5% CO2 and 90% N2) as described Trager and Jensen (1979 Science 193:673-675).
(§5) Base cultivation medium consisted of 10.4 g/L RPMI-1640-LPLF powder (Gibco BRL), 5.97 g/L HEPES buffer (MP Biomedicals, USA), 2.0 g/L D-glucose (BDH chemicals, Australia), 0.05 g/L hypoxanthine (Sigma, USA) and 40 mg/L gentamycin (Pfizer, Australia). The pH of the medium was adjusted to 6.9 and the solution was filtered using 0.2 μm pore size (AcroCap, Gelman Science, USA). […] For [^3H]-hypoxanthine inhibition growth assay, RPMI-1640-LPLF complete medium which lacked [^3H]-hypoxanthine ([^3H]-RPMI-1640-LPLF) was used to prevent uptake of hypoxanthine by parasites, as radioactive hypoxanthine uptake is measured as a surrogate marker of growth. […]
(§6) Red blood cells (RBC) were required for P. falciparum parasites to proliferate in vitro. […] Following the final wash, the haematocrit was measured as the percent of RBC to total culture volume. […]

[2] = tested on: Plasmodium berghei (KBG-173 strain); assay: Plasmodium berghei assay in vivo (modified Thompson Test), survival of infected mice; design: species or system Charles River CD-1 mice; details: for Average Days Survival: 31 day experiment
Experimental: In vivo antimalarial activity was tested in male or female Charles River CD-1 mice that were 4-5 weeks old and weighed 20-25 g They were housed in groups of 3 or 4 in standard plastic cages with wire tops, Bed-o-cob® bedding, 12 hr/day of light, and maintained at 75° F. They were fed a standard Ralston Purina mouse chow and the cages and bottles were changed twice a week. Test compounds were ground in a mortar and pestle and diluted with enough vehicle to give a volume of 10 mL/kg of mouse weight. The oral doses were prepared in 0.5% hydroxyethylcellulose (Union Carbide Corp. WP 4400)/0.1% Tween-80 (Fisher Scientific T164-500). The amount of drug was calculated on the free base weight. The mice were infected intraperitoneally on day 0 with 5×10^4 erythrocytes parasitized with Plasmodium berghei (KBG-173 strain) from a donor mouse having a parasitemia between 5-10%. On days 3, 4 and 5 the test compounds were administered bid, spaced 6 hr apart, by oral gavage to the mice. Activity was measured by survival, with full activity defined as all animals living at day 31. Partial activity is defined as days of increased survival versus the infected non-treated controls. This in vivo model is a modification of the Thompson Test. For further description see Ager, A. L, Jr. Rodent Malaria Models. In Handbook of Experimental Pharmacology: Antimalarial Drugs. 1. 68/1; Peters, W., Richards, W. H. G., Eds.: Springer-Verlag: Berlin, 1984, pp. 231-33.

[3] = tested on: P. falciparum strain W2 (resistant to chloroquine and pyrimethamine); assay: [3H]-hypoxanthine growth inhibition assay, P. falciparum W2; assay type: cell-based; details: Plasmodium falciparum
Experimental: as §1, §2, §3, §4, §5, §6

[4] = 4 mg/kg/day, oral bid on days 3, 4 and 5
[5] = 16 mg/kg/day, oral bid on days 3, 4 and 5
[6] = 64 mg/kg/day, oral bid on days 3, 4 and 5
[7] = Plasmodium berghei, po, 744 h, read-out: Number of mice alive at day 31
[8] = P. falciparum D6, [3H]-hypoxanthine incorporation, read-out: D6 IC50
[9] = Plasmodium berghei, 744 h, 16 mg/kg/day, oral bid on days 3, 4 and 5, read-out: Number of mice alive at day 31 (converted)
[10] = P. falciparum W2, [3H]-hypoxanthine incorporation, read-out: W2 IC50

With `CCN(CC)CCCC(C)Nc1ccnc2cc(Cl)ccc12` (stereo not drawn) [Chloroquine, chloroquine, reference compound] the pIC50 ([1]; D6, read-out: D6 IC50) was 7.92, the “Average Days Survival” value [2, 4] was 10.3 days and the “Average Days Survival” value [2, 5] was greater than 18.8 days. The “Average Days Survival” value [2, 6] was greater than 18.6 days, the “Average Days Survival” value ([2]; 128 mg/kg/day, oral bid on days 3, 4 and 5) was greater than 21.3 days and the responders at 4 mg/kg [2, 7] was 0%. The responders at 16 mg/kg [2, 7] was 14.3%, the responders at 64 mg/kg [2, 7] was 28.6% and the responders at 128 mg/kg [2, 7] was 57.1%. It also gave a pIC50 ([3]; W2, read-out: W2 IC50) of 6.88.
`CC(C)(C)NCc1cc(C(C)(C)C)cc(-c2ccc(Cl)c(C(F)(F)F)c2)c1O.Cl` [Example 23, 5-(tert-Butyl)-3-((tert-butylamino)methyl)-4′-chloro-3′-(trifluoromethyl)-[1,1′-biphenyl]-2-ol hydrochloride] was tested, and the pIC50 [1, 8] was 7.68, the “Average Days Survival” value ([2]; 1 mg/kg/day, oral bid on days 3, 4 and 5) was greater than 15.3 days and the “Average Days Survival” value ([2]; 2 mg/kg/day, oral bid on days 3, 4 and 5) was greater than 7 days. For the same compound, the “Average Days Survival” value [2, 4] was >31* Days, the “Average Days Survival” value ([2]; 8 mg/kg/day, oral bid on days 3, 4 and 5) was >31* Days and the “Average Days Survival” value [2, 5] was >31* Days. The “Average Days Survival” value ([2]; 32 mg/kg/day, oral bid on days 3, 4 and 5) was >31* Days, the responders at 1 mg/kg ([2]; Plasmodium berghei, 744 h, 1 mg/kg/day, oral bid on days 3, 4 and 5, read-out: Number of mice alive at day 31 (converted)) was 42.9% and the responders at 2 mg/kg ([2]; Plasmodium berghei, 744 h, 2 mg/kg/day, oral bid on days 3, 4 and 5, read-out: Number of mice alive at day 31 (converted)) was 85.7%. The responders at 4 mg/kg ([2]; Plasmodium berghei, 744 h, 4 mg/kg/day, oral bid on days 3, 4 and 5, read-out: Number of mice alive at day 31 (converted)) was 100%, the responders at 8 mg/kg ([2]; Plasmodium berghei, 744 h, 8 mg/kg/day, oral bid on days 3, 4 and 5, read-out: Number of mice alive at day 31 (converted)) was 100% and the responders at 16 mg/kg [2, 9] was 100%. For the same compound, the responders at 32 mg/kg ([2]; Plasmodium berghei, 744 h, 32 mg/kg/day, oral bid on days 3, 4 and 5, read-out: Number of mice alive at day 31 (converted)) was 100% and the pIC50 [3, 10] was 8.05.
In the case of `CC(C)(C)NCc1cc(-c2ccc(Cl)cc2)nc(-c2ccc(Cl)cc2)c1O.Cl` [Example 56, 4-((tert-Butylamino)methyl)-2,6-bis(4-chlorophenyl)pyridin-3-ol hydrochloride], the pIC50 [1, 8] was 7.49, the “Average Days Survival” value [2, 5] was greater than 19.3 days and the “Average Days Survival” value [2, 6] was greater than 20 days. For the same compound, the responders at 16 mg/kg [2, 9] was 71.4%, the responders at 64 mg/kg ([2]; Plasmodium berghei, 744 h, 64 mg/kg/day, oral bid on days 3, 4 and 5, read-out: Number of mice alive at day 31 (converted)) was 85.7% and the pIC50 [3, 10] was 7.92.
